For two molecules, solubility and Particle size results are on record in US20030211168A1, “Drug carrier pellet production process” (priority 2000, published 2003).

Data set [1] is described as follows: Solubility of active drug substances in water. Format: physicochemical.
Data set [2] in a line: Particle size of active drug substance. In kind it is physicochemical. To be noted: drug substance raw material.

Counter-ions that a name gives are not always drawn.

For orientation: solubility means the dissolved amount per volume that the medium holds. Low readings indicate little dissolved substance, high ones much dissolved substance. With `COc1ccc([C@@H]2Sc3ccccc3N(CCN(C)C)C(=O)[C@@H]2OC(C)=O)cc1` [Diltiazem hydrochloride], the solubility in data set [1] was above 100 mg/mL.

In turn, `NS(=O)(=O)c1cc(C(=O)O)c(NCc2ccco2)cc1Cl` [Furosemide] showed a Particle size in data set [2] below 10 μm.
